Source: US9278954B2, “Pyrrolidine derivatives, pharmaceutical compositions and uses thereof” (Boehringer Ingelheim International GmbH, priority 2013, dated 2016)

Target: human ACC2 (Homo sapiens (Human), UniProt O00763)
Experiment: ACC2 assay (spectrophotometric 384 well assay, NADH-linked kinetic method)
Assay type: biochemical
Conditions: hACC2 construct lacking the 128 N-terminal amino acids; 25° C., 340 nm over 15 minutes
Procedure: Spectrophotometric 384 Well Assay
Malonyl CoA formation by acetyl CoA carboxylases is stoichometrically linked to the consumption of ATP. ACC2 activity is measured in a NADH-linked kinetic method measuring ADP generated during the ACC reaction using a coupled lactate dehydrogenase/pyruvate kinase reaction.
The protein is then expressed in insect cells using a baculoviral expression system. Protein purification is performed by anion exchange.
All compounds are dissolved in dimethyl sulfoxide (DMSO) to a concentration of 10 mM.
The enzymatic reaction is then started by addition of a mixture of NADH, acetyl
Coenzyme A (both […].) and ATP (500 uM f.c.). The decrease of the optical density (slope S) is then determined at 25° C. at a wavelength of 340 nm over 15 minutes in a spectrophotometric reader.
Each assay microtiter plate contains wells with vehicle instead of compound as controls for the non-inhibited enzyme (100% CTL; ‘HIGH’) and wells without acetyl-CoA as controls for non-specific NADH degradation (0% CTL; ‘LOW’).

human ACC2, sequence (O00763 129-2458): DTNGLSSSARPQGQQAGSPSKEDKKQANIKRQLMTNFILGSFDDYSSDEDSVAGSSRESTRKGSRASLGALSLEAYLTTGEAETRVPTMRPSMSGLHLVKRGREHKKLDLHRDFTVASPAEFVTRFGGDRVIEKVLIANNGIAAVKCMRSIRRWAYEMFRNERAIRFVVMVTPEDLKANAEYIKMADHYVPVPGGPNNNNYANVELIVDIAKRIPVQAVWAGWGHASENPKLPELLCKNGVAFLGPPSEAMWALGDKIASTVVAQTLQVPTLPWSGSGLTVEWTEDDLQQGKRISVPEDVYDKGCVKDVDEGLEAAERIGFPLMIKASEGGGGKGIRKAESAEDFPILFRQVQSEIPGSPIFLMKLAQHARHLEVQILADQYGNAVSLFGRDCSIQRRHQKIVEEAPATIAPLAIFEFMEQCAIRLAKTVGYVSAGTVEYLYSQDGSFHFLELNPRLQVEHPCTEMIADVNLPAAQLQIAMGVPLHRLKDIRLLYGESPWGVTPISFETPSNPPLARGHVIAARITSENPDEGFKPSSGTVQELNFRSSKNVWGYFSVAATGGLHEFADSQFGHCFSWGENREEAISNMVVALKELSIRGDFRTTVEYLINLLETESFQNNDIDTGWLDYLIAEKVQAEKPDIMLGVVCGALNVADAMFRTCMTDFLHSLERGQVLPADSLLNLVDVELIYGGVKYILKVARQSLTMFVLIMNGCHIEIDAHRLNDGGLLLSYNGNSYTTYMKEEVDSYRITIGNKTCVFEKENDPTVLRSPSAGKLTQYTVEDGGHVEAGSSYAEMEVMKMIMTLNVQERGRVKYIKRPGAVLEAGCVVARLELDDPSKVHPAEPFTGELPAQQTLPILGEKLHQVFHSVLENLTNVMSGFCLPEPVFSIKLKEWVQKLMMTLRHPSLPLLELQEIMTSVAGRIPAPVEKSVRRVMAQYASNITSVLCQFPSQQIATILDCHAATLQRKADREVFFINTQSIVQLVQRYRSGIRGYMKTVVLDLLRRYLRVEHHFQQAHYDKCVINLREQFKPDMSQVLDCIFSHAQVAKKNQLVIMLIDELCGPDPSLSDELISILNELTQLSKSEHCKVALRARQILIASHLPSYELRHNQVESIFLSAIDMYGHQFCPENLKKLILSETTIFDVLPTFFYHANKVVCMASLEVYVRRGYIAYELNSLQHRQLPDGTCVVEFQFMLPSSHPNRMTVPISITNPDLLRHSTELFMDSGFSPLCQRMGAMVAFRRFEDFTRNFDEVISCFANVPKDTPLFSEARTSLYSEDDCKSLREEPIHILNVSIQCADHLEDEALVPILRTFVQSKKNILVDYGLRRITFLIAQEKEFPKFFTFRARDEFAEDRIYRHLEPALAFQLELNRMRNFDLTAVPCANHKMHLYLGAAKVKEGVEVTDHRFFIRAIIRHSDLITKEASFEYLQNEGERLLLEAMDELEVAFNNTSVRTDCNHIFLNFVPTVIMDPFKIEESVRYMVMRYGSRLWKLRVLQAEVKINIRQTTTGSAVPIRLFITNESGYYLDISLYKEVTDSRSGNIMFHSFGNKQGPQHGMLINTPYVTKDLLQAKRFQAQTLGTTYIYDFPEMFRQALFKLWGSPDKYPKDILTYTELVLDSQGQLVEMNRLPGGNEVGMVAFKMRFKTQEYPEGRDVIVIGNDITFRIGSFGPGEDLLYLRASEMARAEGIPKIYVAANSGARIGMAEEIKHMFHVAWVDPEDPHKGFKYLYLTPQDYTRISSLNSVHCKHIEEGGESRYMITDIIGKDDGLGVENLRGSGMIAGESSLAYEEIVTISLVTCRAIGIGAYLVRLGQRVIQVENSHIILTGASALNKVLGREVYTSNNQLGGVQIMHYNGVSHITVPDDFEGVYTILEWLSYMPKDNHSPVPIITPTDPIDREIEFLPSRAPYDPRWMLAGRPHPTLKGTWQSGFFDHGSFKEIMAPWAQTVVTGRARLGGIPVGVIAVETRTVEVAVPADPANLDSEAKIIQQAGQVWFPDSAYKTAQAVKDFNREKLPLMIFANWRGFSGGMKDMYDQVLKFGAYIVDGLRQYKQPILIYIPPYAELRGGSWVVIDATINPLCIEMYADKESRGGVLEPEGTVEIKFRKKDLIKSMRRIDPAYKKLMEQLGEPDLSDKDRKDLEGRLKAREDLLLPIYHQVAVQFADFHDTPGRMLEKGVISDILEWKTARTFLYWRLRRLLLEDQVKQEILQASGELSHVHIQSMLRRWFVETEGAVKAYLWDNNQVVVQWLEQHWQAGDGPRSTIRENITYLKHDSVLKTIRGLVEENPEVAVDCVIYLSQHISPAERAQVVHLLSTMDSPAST

SMILES | IC50 [nM]
CC(C(=O)Nc1cccnc1)c1ccc(O[C@@H]2CCN(c3ncnc(OCC(C)(F)F)c3F)C2)cc1 (some centres unmarked) [Example 1.48] | 480
CC(C(=O)NC1COC1)c1ccc(O[C@@H]2CCN(c3nc(N(C)C)ncc3F)C2)cc1 (some centres unmarked) [Example 1.68] | 724
CCCNc1nccc(N2CC[C@@H](Oc3ccc(C(C)C(=O)NC4CCC4)cc3)C2)c1F (some centres unmarked) [Example 1.41] | 438
CC(C(=O)NCC(F)(F)F)c1ccc(O[C@@H]2CCN(c3ccc(OCC4CC4(F)F)cn3)C2)cc1 (some centres unmarked) [Example 1.62] | 637
CC(C(=O)N[C@H](C)CO)c1ccc(O[C@@H]2CCN(c3ccc(OCC4CC4(F)F)cn3)C2)cc1 (some centres unmarked) [Example 1.57] | 591
CCNC(=O)C(C)c1ccc(O[C@@H]2CCN(c3ccnc(N(C)CC)n3)C2)cc1 (some centres unmarked) [Example 2.2] | 179
CCNC(=O)C(C)c1ccc(O[C@@H]2CCN(c3ncnc(OCC(C)(C)O)c3Cl)C2)cc1 (some centres unmarked) [Example 1.17] | 272
CC(C(=O)NC1CC1)c1ccc(O[C@@H]2CCN(c3ccc(OCC4CC4(F)F)cn3)C2)cc1 (some centres unmarked) [Example 1.8] | 179
CCNC(=O)C(C)c1ccc(O[C@@H]2CCN(c3ccnc(N4CCC(F)(F)C4)n3)C2)cc1 (some centres unmarked) [Example 2.4] | 399
CC(C(=O)NCC(F)(F)F)c1ccc(O[C@@H]2CCN(c3nc(N(C)C)ncc3F)C2)cc1 (some centres unmarked) [Example 1.69] | 748
CC(C)NC(=O)C(C)c1ccc(O[C@@H]2CCN(c3nc(N(C)C)ncc3F)C2)cc1 (some centres unmarked) [Example 1.81] | 934
CC(C)NC(=O)C(C)c1ccc(O[C@@H]2CCN(c3ncnc(OCC(C)(F)F)c3F)C2)cc1 (some centres unmarked) [Example 1.80] | 907
C=C(C)CNC(=O)C(C)c1ccc(O[C@@H]2CCN(c3nc(N(C)C)ncc3F)C2)cc1 (some centres unmarked) [Example 1.44] | 454
CC(C(=O)NC1CCC1)c1ccc(O[C@@H]2CCN(c3nc(N(C)C)ncc3F)C2)cc1 (some centres unmarked) [Example 1.78] | 878
CCCNc1nccc(N2CC[C@@H](Oc3ccc(C(C)C(=O)NCC4CC(F)(F)C4)cc3)C2)c1F (some centres unmarked) [Example 1.92] | 3700
C=C(C)CNC(=O)C(C)c1ccc(O[C@@H]2CCN(c3ncnc(OCC(C)(C)O)c3Cl)C2)cc1 (some centres unmarked) [Example 1.23] | 315
CC(C(=O)NC1CC1)c1ccc(O[C@@H]2CCN(c3nc(N(C)C)ncc3F)C2)cc1 (some centres unmarked) [Example 1.7] | 170
CC(C(=O)NCC1CC1)c1ccc(O[C@@H]2CCN(c3ncnc(OCC(C)(C)O)c3Cl)C2)cc1 (some centres unmarked) [Example 1.83] | 1070
CC[C@@H](C)NC(=O)C(C)c1ccc(O[C@@H]2CCN(c3ccc(OCC4CC4(F)F)cn3)C2)cc1 (some centres unmarked) [Example 1.58] | 598
CCCNC(=O)C(C)c1ccc(O[C@@H]2CCN(c3nc(N(C)C)ncc3F)C2)cc1 (some centres unmarked) [Example 1.65] | 667
CCCNC(=O)C(C)c1ccc(O[C@@H]2CCN(c3ccc(OCC4CC4(F)F)cn3)C2)cc1 (some centres unmarked) [Example 1.52] | 533
CC(C(=O)NC[C@H](C)O)c1ccc(O[C@@H]2CCN(c3ccc(OCC4CC4(F)F)cn3)C2)cc1 (some centres unmarked) [Example 1.89] | 1880
CC(C(=O)NC1CC1C)c1ccc(O[C@@H]2CCN(c3nc(N(C)C)ncc3F)C2)cc1 (single isomer, unassigned) [6.2 isomer 2] | 177
CC(C(=O)NCCCO)c1ccc(O[C@@H]2CCN(c3ccc(OCC4CC4(F)F)cn3)C2)cc1 (some centres unmarked) [Example 1.86] | 1380
CCCNc1nccc(N2CC[C@@H](Oc3ccc(C(C)C(=O)N[C@H](C)CC)cc3)C2)c1F (some centres unmarked) [Example 1.29] | 367
CC(C(=O)NC1CC1C)c1ccc(O[C@@H]2CCN(c3ncnc(OCC(C)(C)O)c3Cl)C2)cc1 (single isomer, unassigned) [6.4 isomer 3] | 127

SMILES | IC50 [nM]
CC(CO)NC(=O)C(C)c1ccc(O[C@@H]2CCN(c3ncnc(OCC(C)(F)F)c3F)C2)cc1 (some centres unmarked) [Example 1.76] | 838
CCCNc1nccc(N2CC[C@@H](Oc3ccc(C(C)C(=O)Nc4cccnc4)cc3)C2)c1F (some centres unmarked) [Example 1.35] | 410
C=C(C)CNC(=O)C(C)c1ccc(O[C@@H]2CCN(c3ccc(OCC4CC4(F)F)cn3)C2)cc1 (some centres unmarked) [Example 1.37] | 418
CCCNc1nccc(N2CC[C@@H](Oc3ccc(C(C)C(=O)NCCF)cc3)C2)c1F (some centres unmarked) [Example 1.19] | 296
CC(C(=O)NC1COC1)c1ccc(O[C@@H]2CCN(c3ccc(OCC4CC4(F)F)cn3)C2)cc1 (some centres unmarked) [Example 1.67] | 706
CCCNC(=O)C(C)c1ccc(O[C@@H]2CCN(c3ccnc(NCCC)c3F)C2)cc1 (some centres unmarked) [Example 1.32] | 402
CC(C(=O)NC1CCC1)c1ccc(O[C@@H]2CCN(c3ccc(OCC4CC4(F)F)cn3)C2)cc1 (some centres unmarked) [Example 1.82] | 940
CCNC(=O)C(C)c1ccc(O[C@@H]2CCN(c3ccnc(N(C)C4CC4)n3)C2)cc1 (some centres unmarked) [Example 2.5] | 575
CCCNC(=O)C(C)c1ccc(O[C@@H]2CCN(c3ncnc(OCC(C)(F)F)c3F)C2)cc1 (some centres unmarked) [Example 1.75] | 818
CC(C(=O)NC1CC1C)c1ccc(O[C@@H]2CCN(c3nc(N(C)C)ncc3F)C2)cc1 (single isomer, unassigned) [6.2 isomer 3] | 219
CC(C(=O)NC1CC1)c1ccc(O[C@@H]2CCN(c3ncnc(OCC(C)(F)F)c3F)C2)cc1 (some centres unmarked) [Example 1.5] | 133
CC(CC#N)NC(=O)C(C)c1ccc(O[C@@H]2CCN(c3ccc(OCC4CC4(F)F)cn3)C2)cc1 (some centres unmarked) [Example 1.84] | 1120
CC(C(=O)NC1CCC1)c1ccc(O[C@@H]2CCN(c3ncnc(OCC(C)(C)O)c3Cl)C2)cc1 (some centres unmarked) [Example 1.50] | 501
CCCNc1nccc(N2CC[C@@H](Oc3ccc(C(C)C(=O)NCC(F)F)cc3)C2)c1F (some centres unmarked) [Example 1.21] | 309
CC(C)CNC(=O)C(C)c1ccc(O[C@@H]2CCN(c3ccc(OCC4CC4(F)F)cn3)C2)cc1 (some centres unmarked) [Example 1.79] | 907
CC(C)NC(=O)C(C)c1ccc(O[C@@H]2CCN(c3ccc(OCC4CC4(F)F)cn3)C2)cc1 (some centres unmarked) [Example 1.63] | 652
CC(C(=O)N1CC(F)C1)c1ccc(O[C@@H]2CCN(c3nc(N(C)C)ncc3F)C2)cc1 (some centres unmarked) [Example 1.93] | 5480
CC(C(=O)NCC(F)(F)F)c1ccc(O[C@@H]2CCN(c3ncnc(OCC(C)(F)F)c3F)C2)cc1 (some centres unmarked) [Example 1.64] | 658
CC(C(=O)NCCF)c1ccc(O[C@@H]2CCN(c3ncnc(OCC(C)(F)F)c3F)C2)cc1 (some centres unmarked) [Example 1.55] | 573
CCCNc1nccc(N2CC[C@@H](Oc3ccc(C(C)C(=O)NCC)cc3)C2)c1F (some centres unmarked) [Example 1.11] | 213
CC(C(=O)NC1CCC1)c1ccc(O[C@@H]2CCN(c3ncnc(OCC(C)(F)F)c3F)C2)cc1 (some centres unmarked) [Example 1.66] | 687
CC(C(=O)NC1CC1C)c1ccc(O[C@@H]2CCN(c3ncnc(OCC(C)(C)O)c3Cl)C2)cc1 (some centres unmarked) [Example 1.13] | 233
CCNC(=O)C(C)c1ccc(O[C@@H]2CCN(c3ncnc(OCC(C)(C)O)c3Cl)C2)cc1 (single isomer, unassigned) [6.3 isomer 2] | 1100
CC(CO)NC(=O)C(C)c1ccc(O[C@@H]2CCN(c3nc(N(C)C)ncc3F)C2)cc1 (some centres unmarked) [Example 1.77] | 849
CCNC(=O)C(C)c1ccc(O[C@@H]2CCN(c3ccnc(N4CCOCC4)n3)C2)cc1 (some centres unmarked) [Example 2.6] | 808

Further lines, results first:

IC50 [nM] | SMILES
235 | CC(C(=O)NC1CC1)c1ccc(O[C@@H]2CCN(c3ncnc(OCC(C)(C)O)c3F)C2)cc1 (stereo partly drawn) [Example 3.1, N-Cyclopropyl-2-(4-(1-[5-fluoro-6-(2-hydroxy-2-methyl-propoxy)-pyrimidin-4-yl]-(R)-pyrrolidin-3-yloxy)-phenyl)-propionamide]
72 | CCNC(=O)C(C)c1ccc(O[C@@H]2CCN(c3ccc(OC4CCCC4)cc3)C2)cc1 (some centres unmarked) [Example 7.2]
225 | CCCOc1ccc(N2CC[C@@H](Oc3ccc(C(C)C(=O)NCC)cc3)C2)c(Cl)c1 (some centres unmarked) [Example 7.5]
259 | CC(C(=O)NC1CC1C)c1ccc(O[C@@H]2CCN(c3ncnc(OCC(C)(C)O)c3F)C2)cc1 (some centres unmarked) [Example 3.2]
600 | CCNC(=O)C(C)c1ccc(O[C@@H]2CCN(c3ccc(OC4CC4)cc3C)C2)cc1 (some centres unmarked) [Example 7.29]
583 | CCNC(=O)C(C)c1ccc(O[C@@H]2CCN(c3ccc(OC4CCCCC4)nc3)C2)cc1 (some centres unmarked) [Example 7.28]
274 | CCNC(=O)C(C)c1ccc(O[C@@H]2CCN(c3ccc(OCC4CC4)cc3)C2)cc1 (some centres unmarked) [Example 7.8]
407 | CCNC(=O)C(C)c1ccc(O[C@@H]2CCN(c3ccc(OC(C)CC)cc3)C2)cc1 (some centres unmarked) [Example 7.14]
300 | CC(C(=O)Nc1cccc(F)c1)c1ccc(O[C@@H]2CCN(c3nc(N(C)C)ncc3F)C2)cc1 (some centres unmarked) [Example 3.4]
454 | CCNC(=O)C(C)c1ccc(O[C@@H]2CCN(c3ccc(OCCC4CC4)cc3)C2)cc1 (some centres unmarked) [Example 7.21]
575 | CCNC(=O)C(C)c1ccc(O[C@@H]2CCN(c3ccc(OCC)cc3F)C2)cc1 (some centres unmarked) [Example 4.2]
955 | CCCNc1ncnc(N2CC[C@@H](Oc3ccc(C(C)C(=O)NCC(F)F)cc3)C2)c1F (some centres unmarked) [Example 3.10]
280 | CCCNc1ncnc(N2CC[C@@H](Oc3ccc(C(C)C(=O)NC4CC4)cc3)C2)c1F (some centres unmarked) [Example 3.3]
224 | CCNC(=O)C(C)c1ccc(O[C@@H]2CCN(c3cccc(C(F)(F)F)c3)C2)cc1 (some centres unmarked) [Example 7.4]
470 | CCNC(=O)C(C)c1ccc(O[C@@H]2CCN(c3ccc(OCC4CC4(F)F)nc3C#N)C2)cc1 (some centres unmarked) [Example 7.23]
435 | CCNC(=O)C(C)c1ccc(O[C@@H]2CCN(c3cccc(Cl)c3)C2)cc1 (some centres unmarked) [Example 7.19]
353 | CCNC(=O)C(C)c1ccc(O[C@@H]2CCN(c3ccc(F)c(C(F)(F)F)n3)C2)cc1 (some centres unmarked) [Example 8.2]
